# Results as given in ChEMBL document CHEMBL1201862, “PubChem BioAssay data set” (2004).
# Active and inactive are the calls of the source.
# Tests used:
# [1] = target: Protein-tyrosine kinase 2-beta (Homo sapiens, UniProt Q14289);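 also: potency of inhibitors of PYK2 kinase phosphorylation of poly-GT substrate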
# [2] = HEp-2 cell cytotoxicity, dose response, cytotoxicity control for RSV inhibitor project, HTS (AID 2410); type: functional; conditions: human respiratory syncytial virus
# Vero = experiment: West Nile virus antiviral activity, cell-based, CPE readout (AID 1621); type: functional; conditions: Chlorocebus sabaeus
# [3] = cytotoxicity in HEK-293T cells, dose response, cytotoxicity control for TCR NF-kB inhibitor project, luminescence, T-cell screen hits (AID 489026); type: functional, cell-based;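 also: cells exposed to compound about 14 hours before the viability readout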
# NADPH oxidase 1 = target: T1, NADPH oxidase 1 (Homo sapiens, UniProt Q9Y5S8); experiment: Late-stage luminescence-based cell-based dose response assay to identify inhibitors of NADPH oxidase 1 (NOX1): Purchased analogs 2.; type: functional
# T1 sequence (Q9Y5S8 whole entry): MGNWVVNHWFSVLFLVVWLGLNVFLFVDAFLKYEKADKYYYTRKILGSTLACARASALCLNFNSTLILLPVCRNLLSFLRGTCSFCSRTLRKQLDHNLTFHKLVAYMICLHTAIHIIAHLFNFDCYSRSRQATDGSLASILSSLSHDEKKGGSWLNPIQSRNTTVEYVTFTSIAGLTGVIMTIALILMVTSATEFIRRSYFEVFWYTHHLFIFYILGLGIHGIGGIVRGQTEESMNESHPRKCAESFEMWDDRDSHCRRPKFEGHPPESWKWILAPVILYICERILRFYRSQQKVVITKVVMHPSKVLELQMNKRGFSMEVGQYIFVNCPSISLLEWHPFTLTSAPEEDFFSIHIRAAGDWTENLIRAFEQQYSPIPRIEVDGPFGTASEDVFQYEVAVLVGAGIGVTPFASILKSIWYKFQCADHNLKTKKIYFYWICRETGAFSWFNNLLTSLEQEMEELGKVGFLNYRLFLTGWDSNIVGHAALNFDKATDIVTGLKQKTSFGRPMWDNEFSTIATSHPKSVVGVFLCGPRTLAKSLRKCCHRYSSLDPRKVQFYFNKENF
# [4] = target: T2, Long-chain-fatty-acid--AMP ligase FadD28 (Mycobacterium tuberculosis, UniProt P9WQ59); experiment: Fluorescence polarization aasay to screen for inhibitors that compete for the binding of FadD28 to a bisubstrate Measured in Biochemical System Using Plate Reader - 2147-01_Inhibitor_Dose_CherryPick_Activity.; type: functional, Mycobacterium tuberculosis H37Rv
# T2 sequence (P9WQ59 whole entry): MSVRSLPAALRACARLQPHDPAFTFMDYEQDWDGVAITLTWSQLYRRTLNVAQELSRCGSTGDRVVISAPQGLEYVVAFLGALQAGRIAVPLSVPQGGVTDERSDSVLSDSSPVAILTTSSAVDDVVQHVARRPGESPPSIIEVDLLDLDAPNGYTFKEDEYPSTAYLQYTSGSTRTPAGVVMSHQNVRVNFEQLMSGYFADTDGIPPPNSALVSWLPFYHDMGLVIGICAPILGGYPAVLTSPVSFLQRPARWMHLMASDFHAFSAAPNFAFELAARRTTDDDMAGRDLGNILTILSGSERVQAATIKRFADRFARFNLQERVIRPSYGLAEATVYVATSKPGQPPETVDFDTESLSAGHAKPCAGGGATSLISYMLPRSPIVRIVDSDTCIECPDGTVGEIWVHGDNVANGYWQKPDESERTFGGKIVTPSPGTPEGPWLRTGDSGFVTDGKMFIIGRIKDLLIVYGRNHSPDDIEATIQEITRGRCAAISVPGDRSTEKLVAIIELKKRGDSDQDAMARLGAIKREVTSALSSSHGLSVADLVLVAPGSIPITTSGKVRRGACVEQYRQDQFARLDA
# [5] = target: Potassium voltage-gated channel subfamily KQT member 2 (Rattus norvegicus, UniProt O88943, W236L); experiment: KCNQ2 channel potentiators, dose response, mechanism study for KCNQ2 potentiator project, cell-based, automated electrophysiology (AID 2603); type: functional
# [6] = target: Transitional endoplasmic reticulum ATPase (Homo sapiens, UniProt P55072, C522A); experiment: Luminescence counterscreen assay for p97 inhibitors: dose response biochemical high throughput screening assay to identify inhibitors of the C522A mutant p97 ATPase: synthesized compounds. [Related pubchem assays: 1481, 1517, 1551 ]
# [7] = target: Transitional endoplasmic reticulum ATPase (Homo sapiens, UniProt P55072); experiment: Luminescence dose response biochemical high throughput screening assay for inhibitors of the p97 ATPase: synthesized compounds. [Related pubchem assays: 1481, 1517 ]
# Paired box protein Pax-8 = Paired box protein Pax-8 (Homo sapiens, UniProt Q06710); experiment: inhibitors of PAX8-driven TPO luciferase reporter, dose response, RMG-I cells, cherry-pick (AID 687027); type: functional, cell-based;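 also: luciferase reporter driven by Pax8 target thyroperoxidase promoter measured by SteadyGlo luminescence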
# BJ [8] = experiment: cytotoxicity toward BJ-TERT fibroblasts, dose response, cell-based, RAS-independent, luminescence (AID 1933); type: functional; conditions: Homo sapiens
# [9] = cytotoxicity in HEK-293T NF-kB-Luc cells, dose response, cytotoxicity control for B/T-cell NF-kB inhibitor project, cell-based, uHTS hits (AID 489019); type: functional;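 also: IC50 reflects cytotoxicity as loss of cell viability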
# BJ [10] = experiment: cytotoxicity toward Ras-transformed BJeLR fibroblasts, dose response, cell-based, alamar blue fluorescence, cherrypicked samples (AID 2631); type: functional; conditions: Homo sapiens;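 also: confirmatory dose-response assay in RAS-dependent BJ fibroblasts engineered with TERT, LT and ST, with cytotoxicity read by fluorescence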
# Jurkat = experiment: antigen receptor-induced NF-kB inhibitors, dose response, Jurkat, luciferase reporter, luminescence, B- and T-cell (AID 489004); type: functional, cell-based; conditions: Homo sapiens;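 also: NF-kB luciferase reporter Jurkat cells stimulated with PMA plus ionomycin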
# [11] = non-specific cell cytotoxicity, dose response, cytotoxicity control for PAX8 inhibitor project, plate reader, dry powder samples (AID 743021); type: functional, cell-based
# BJ [12] = experiment: cells; type: functional, cell-based; conditions: Homo sapiens
# [13] = Luminescent dose response cell-based high throughput screening assay for inhibitors of the Janus kinase 2 mutant JAK2V617F. [Related pubchem assays: 1446 (Primary screen.), 1521 (Confirmation assay.), 1486 (Counter screen.)]; type: functional
# BJ [14] = experiment: cytotoxicity toward BJ-TERT-LT-ST fibroblasts, dose response, cell-based, RAS-independent, luminescence (AID 1935); type: functional; conditions: Homo sapiens;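 also: BJ fibroblasts immortalized with TERT plus LT and ST oncogenes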
# [15] = cytotoxicity toward DRD oncogenic fibroblasts, dose response, cell-based, non-viral oncogenic, luminescence (AID 1934); type: functional; conditions: Homo sapiens
# Paired box protein Pax-8, sequence (Q06710 whole entry): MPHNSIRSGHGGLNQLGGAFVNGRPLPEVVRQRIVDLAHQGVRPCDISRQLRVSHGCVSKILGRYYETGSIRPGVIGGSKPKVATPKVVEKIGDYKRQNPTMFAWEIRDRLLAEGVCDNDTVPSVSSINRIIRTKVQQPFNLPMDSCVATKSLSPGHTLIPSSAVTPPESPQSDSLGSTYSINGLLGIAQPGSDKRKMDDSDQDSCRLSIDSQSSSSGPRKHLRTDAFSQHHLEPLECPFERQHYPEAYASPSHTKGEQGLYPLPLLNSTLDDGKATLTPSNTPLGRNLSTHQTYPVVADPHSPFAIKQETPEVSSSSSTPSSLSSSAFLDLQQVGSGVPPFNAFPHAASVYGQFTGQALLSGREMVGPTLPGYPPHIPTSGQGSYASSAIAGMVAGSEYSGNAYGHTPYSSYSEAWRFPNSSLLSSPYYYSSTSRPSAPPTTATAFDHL
# Potassium voltage-gated channel subfamily KQT member 2, sequence (O88943 whole entry W236L): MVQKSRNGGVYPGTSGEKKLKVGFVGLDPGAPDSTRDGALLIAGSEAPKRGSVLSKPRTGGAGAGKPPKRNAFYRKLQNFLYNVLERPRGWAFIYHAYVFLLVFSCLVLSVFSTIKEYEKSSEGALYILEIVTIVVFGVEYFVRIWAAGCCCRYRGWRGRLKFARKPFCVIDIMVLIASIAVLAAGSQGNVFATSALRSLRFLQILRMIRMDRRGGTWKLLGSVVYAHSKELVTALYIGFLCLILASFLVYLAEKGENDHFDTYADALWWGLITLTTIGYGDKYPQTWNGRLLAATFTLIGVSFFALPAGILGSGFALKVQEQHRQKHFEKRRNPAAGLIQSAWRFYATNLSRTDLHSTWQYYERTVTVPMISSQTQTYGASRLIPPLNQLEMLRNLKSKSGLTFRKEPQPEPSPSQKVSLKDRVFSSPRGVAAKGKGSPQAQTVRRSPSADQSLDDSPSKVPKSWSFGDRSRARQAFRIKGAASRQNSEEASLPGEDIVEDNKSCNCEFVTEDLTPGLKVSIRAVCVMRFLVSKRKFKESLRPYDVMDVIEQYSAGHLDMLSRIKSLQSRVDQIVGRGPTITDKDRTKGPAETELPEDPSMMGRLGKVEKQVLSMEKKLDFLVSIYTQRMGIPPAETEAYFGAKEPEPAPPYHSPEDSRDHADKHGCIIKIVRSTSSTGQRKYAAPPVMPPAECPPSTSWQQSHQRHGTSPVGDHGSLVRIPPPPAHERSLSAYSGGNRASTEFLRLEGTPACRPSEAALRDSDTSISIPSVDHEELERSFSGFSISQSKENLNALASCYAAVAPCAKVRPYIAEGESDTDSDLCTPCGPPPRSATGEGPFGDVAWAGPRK
# Protein-tyrosine kinase 2-beta, sequence (Q14289 whole entry): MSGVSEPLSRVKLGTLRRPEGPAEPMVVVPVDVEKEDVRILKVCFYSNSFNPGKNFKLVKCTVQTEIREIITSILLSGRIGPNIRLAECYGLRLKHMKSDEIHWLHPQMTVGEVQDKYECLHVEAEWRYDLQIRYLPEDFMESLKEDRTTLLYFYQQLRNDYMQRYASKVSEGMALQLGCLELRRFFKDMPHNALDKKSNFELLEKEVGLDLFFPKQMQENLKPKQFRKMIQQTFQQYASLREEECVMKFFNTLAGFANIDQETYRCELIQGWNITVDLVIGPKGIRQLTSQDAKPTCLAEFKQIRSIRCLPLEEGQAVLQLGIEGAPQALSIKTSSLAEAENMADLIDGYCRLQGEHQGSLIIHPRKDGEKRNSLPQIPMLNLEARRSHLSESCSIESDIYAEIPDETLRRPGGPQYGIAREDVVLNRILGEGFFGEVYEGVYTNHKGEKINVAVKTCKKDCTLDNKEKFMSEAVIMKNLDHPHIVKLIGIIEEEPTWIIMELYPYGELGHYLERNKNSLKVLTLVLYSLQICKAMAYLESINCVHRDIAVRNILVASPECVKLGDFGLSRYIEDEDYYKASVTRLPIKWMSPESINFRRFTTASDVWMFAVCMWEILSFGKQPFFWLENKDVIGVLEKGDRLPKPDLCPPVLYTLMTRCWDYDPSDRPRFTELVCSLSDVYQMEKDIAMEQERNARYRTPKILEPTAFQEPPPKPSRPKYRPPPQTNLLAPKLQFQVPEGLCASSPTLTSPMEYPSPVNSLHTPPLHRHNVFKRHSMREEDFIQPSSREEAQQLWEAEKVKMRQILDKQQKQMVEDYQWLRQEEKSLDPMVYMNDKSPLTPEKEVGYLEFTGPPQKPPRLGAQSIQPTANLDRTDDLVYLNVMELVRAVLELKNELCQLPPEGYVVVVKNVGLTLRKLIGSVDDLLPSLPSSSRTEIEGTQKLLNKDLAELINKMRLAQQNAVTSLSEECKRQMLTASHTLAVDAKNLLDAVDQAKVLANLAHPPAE
# Transitional endoplasmic reticulum ATPase (Homo sapiens, UniProt P55072, C522A), sequence (P55072 2-806 C522A limits assumed): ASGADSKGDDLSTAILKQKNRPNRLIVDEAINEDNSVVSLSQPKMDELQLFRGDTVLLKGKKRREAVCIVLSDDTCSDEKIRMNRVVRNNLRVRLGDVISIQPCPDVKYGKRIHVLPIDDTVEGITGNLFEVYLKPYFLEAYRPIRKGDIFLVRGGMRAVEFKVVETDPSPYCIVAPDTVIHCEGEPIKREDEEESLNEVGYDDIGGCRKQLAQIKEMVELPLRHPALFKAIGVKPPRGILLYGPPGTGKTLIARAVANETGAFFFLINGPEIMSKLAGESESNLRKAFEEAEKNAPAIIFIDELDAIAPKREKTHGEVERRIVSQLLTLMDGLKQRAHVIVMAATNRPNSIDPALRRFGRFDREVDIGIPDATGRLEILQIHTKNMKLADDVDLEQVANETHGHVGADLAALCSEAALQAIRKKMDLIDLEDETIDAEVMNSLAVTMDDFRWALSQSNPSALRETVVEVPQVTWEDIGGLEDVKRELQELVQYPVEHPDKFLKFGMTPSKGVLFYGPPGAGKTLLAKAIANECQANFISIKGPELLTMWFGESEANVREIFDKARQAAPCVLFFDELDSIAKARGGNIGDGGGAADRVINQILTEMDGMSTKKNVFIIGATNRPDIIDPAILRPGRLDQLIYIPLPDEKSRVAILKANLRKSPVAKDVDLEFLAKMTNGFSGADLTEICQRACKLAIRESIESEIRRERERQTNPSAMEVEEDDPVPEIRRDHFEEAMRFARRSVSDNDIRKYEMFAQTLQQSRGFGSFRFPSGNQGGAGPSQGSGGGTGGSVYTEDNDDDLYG
# Transitional endoplasmic reticulum ATPase (Homo sapiens, UniProt P55072), sequence (P55072 whole entry): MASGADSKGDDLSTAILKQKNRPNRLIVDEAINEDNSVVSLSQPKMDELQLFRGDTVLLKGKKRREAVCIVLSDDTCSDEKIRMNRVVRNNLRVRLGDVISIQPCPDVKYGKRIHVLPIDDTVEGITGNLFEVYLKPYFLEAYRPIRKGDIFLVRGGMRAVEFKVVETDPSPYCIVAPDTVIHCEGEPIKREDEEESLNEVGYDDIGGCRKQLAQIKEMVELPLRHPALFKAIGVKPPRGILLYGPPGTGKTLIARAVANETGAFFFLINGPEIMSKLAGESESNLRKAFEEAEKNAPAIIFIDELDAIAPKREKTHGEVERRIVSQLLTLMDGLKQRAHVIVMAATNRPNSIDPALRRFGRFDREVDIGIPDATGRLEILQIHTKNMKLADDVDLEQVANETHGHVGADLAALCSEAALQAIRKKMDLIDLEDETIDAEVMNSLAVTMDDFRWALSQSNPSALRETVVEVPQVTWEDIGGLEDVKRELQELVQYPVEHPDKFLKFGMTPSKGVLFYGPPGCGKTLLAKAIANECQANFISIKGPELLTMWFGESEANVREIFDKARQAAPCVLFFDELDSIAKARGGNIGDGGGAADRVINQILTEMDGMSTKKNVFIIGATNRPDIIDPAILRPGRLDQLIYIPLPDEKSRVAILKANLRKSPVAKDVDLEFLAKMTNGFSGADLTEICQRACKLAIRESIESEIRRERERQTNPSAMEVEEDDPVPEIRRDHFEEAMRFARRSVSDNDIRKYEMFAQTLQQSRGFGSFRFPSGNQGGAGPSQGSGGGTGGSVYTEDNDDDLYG
compound,measurement,setting,value
Clc1ccc2[nH]cc(-c3nnnn3-c3ccccc3)c2c1,IC50,[1],> 69.5 µM (not active)
CC(C)c1oc(=O)cc2c1[C@@H](O)[C@H]1OC(=O)[C@@]3(C)CC[C@@H](O)[C@@]2(C)C13 (stereo not given in full),CC50,[2],10.4 µM (active)
same,IC50,Vero,17.4 µM (active)
same,IC50,[3],> 80 µM (inactive)
same,IC50,cells,12.2 µM (active)
CC=C(NNc1c(Cl)c(Cl)nc(C(=O)O)c1Cl)c1ccccc1,IC50,NADPH oxidase 1,> 17 µM (not active)
CC(C)n1c(O)c(N=Nc2ccc(Cl)c(C(=O)O)c2)c2ccccc21,AC50,[4],35.7 µM (active)
same,EC50,[5],3.7 µM (active)
CCOC(=O)/C(C#N)=C/c1c[nH]c2ccc(C#N)cc12,IC50,[6],> 50 µM (not active)
same,IC50,[7],> 50 µM (not active)
O=C(CCl)/N=c1\sccn1Cc1ccccc1Cl,AC50,Paired box protein Pax-8,1.64 µM (active)
same,EC50,BJ [8],0.403 µM (inconclusive)
same,IC50,[9],> 80 µM (inactive)
same,EC50,BJ [10],0.343 µM (active)
same,IC50,Jurkat,0.31 µM (active)
same,AC50,[11],2.74 µM (active)
same,EC50,BJ [12],1.33 µM (inconclusive)
same,IC50,[13],0.442 µM (active)
same,EC50,BJ [14],12.1 µM (inconclusive)
same,EC50,[15],0.691 µM (active)
